Data published in patent US20030119733A1, “Compositions and methods for inhibiting hepatocyte invasion by malarial sporozoites” (New York University, priority 1992, published 2003).
Values joined by “and” are separate entries in the source; they are usually repeats but may differ in a detail not shown here. Equal entries are not always repeated. Where two headings read alike, the source gives them in different places. Where no end group is shown, it is not given here.

How the values were obtained:
[1] = tested on: heparan sulfate proteoglycans (HSPG); assay: CS/proteoglycan co-immunoprecipitation; type: binding, human; conditions: for effect on co-immunoprecipitation of the CS receptor by CSFZ(Cys): 100 μg/ml added to 35SO4-labeled HepG2 cell extracts; for effect on co-immunoprecipitation of purified proteoglycans by CSFZ(Cys): purified trypsin-released HepG2 proteoglycan, FIG. 17
Protocol: All extracts and supernatants were first precleared with normal rabbit serum and Staph A cells. Then 32 μg/ml of CSFZ(Cys) or 64 μg/ml of CS27IVC, Falc-2 or Falc-1 were added for 30 minutes, followed by 10.8 μg/ml mAb 2A10 for 30 minutes, and 1% Staph A cells (final concentrations). The suspensions were shaken for 1 to 5 hours at 4° C. The Staph A cells were washed 3 times with the lysis buffer A, 2 times with lysis buffer B (10 mM Tris-HCl, pH 7.2, containing 100 mM NaCl and 0.5% NP40), 1 time with 50 mM Tris-HCl, ph 7.2, and were processed in this buffer for electrophoresis under reducing and non-reducing conditions.
Extracts of cells metabolically labeled with ^35SO4 were incubated for 30 minutes at 4° C. with 32 μg/ml of recombinant CSFZ(Cys) or 64 μg/ml Falc-1, and were immunoprecipitated with mAb 2A10 and Staph A cells. […] Immunoprecipitation with Falc-1 was negative. The SDS-PAGE patterns of the total lysate of HepG2 cells, and of the molecules co-immunoprecipitated with CSFZ(Cys) resembled the corresponding liver SDS-PAGE patterns. In kidney lysates, CSFZ(Cys) selectively immunoprecipitated a band of slightly lower molecular weight than the total kidney sulfated molecules.
Sub-confluent HepG2 cells were incubated with various concentrations of trypsin for 5 minutes at 4° C. […] Independently of the trypsin concentration, about 80% of the released HSPG was co-immunoprecipitated by 32 μg/ml CSFZ(Cys) and 10.8 μg/ml mAb 2A10. Under the same conditions, Falc-1 was negative.
^35SO4-labeled trypsin-released proteoglycan (total supernatant) was precipitated by CSFZ(Cys) (32 μg/ml), Falc-2 (64 μg/ml), CS27IVC (64 μg/ml) and Falc-1 (64 μg/ml). The labeled molecules were incubated with CSFZ(Cys), CS27IVC, and Falc-2 at equivalent concentrations of Region II+, and co-immunoprecipitated with the mAb 2A10. CSFZ(Cys), lacking most of the repeat region, precipitated up to 86% of the total sulfate-labeled proteoglycans (see FIG. 14), while CS27IVC and Falc-2 precipitated only 18% and 6% of the counts, respectively. Falc-1, which lacks Region II+, was negative.
Subconfluent sulfate-labeled HepG2 cells were incubated with 20 μg/ml trypsin for 5 minutes at 4° C., and the supernatants were loaded onto an anion exchange chromatography Pharmacia mono-Q column. These were eluted with a 0 to 2 M NaCl gradient in the presence of 7 M urea. […] Protein was not detectable in the labeled peaks. One ml fractions were collected and counted.

[2] = tested on: Vivax-2 binding to cholesterol-sulfate; assay: Inhibition of binding of Vivax-2 to cholesterol-sulfate; parameters: species or system P. vivax
Protocol: (§1) Solid phase binding assays: Thirty μl of lipids or steroids dissolved in methanol (20-250 μg/ml) were dried into wells of microassay plates (Cat.# 3911—Falcon—Oxnard, Calif.). The plates were then blocked with 1% BSA/PBS pH 7.4 (BSA/PBS) for 30 minutes. Wells were incubated with recombinant protein (or with parasite extract) in PBS/BSA for 1 hour, washed 3 times with BSA/PBS, incubated for 1 hour with monoclonal antibodies 2F2 or 2A10 in BSA/PBS, washed 3 times, and then incubated with (10^5 cpm/well) ^125I protein A (Amersham Corp., Arlington Hts., Ill.). In the case of the P. berghei CS protein, wells were incubated with ^125I labelled mAb 3D11. Wells were washed again and the bound radioactive protein was counted in an LKB gamma-counter (model #1260, Pharmacia, Inc., Gaithersburg, Md.). For inhibition assays, the recombinant proteins were mixed with dilutions of the various polymers in BSA/PBS, the mixture was loaded into the wells of the microtiter plates, and the binding assay performed as above. See also, Roberts, et al. J. Biol. Chem. 260:9405-9411, 1985.

[3] = tested on: binding of CSFZ(Cys) to HepG2 cells; assay: Inhibition of CS binding to HepG2 cells by glycosaminoglycans; parameters: species or system human; conditions: preincubated with 5 μg/ml CSFZ(Cys); FIG. 9
Protocol: 10^5 HepG2 cells were deposited in 96-well Removawell tissue culture plates and allowed to grow overnight in MEM (Gibco) containing 10% FCS, 1 mM L-glutamine (Gibco), 3 mg/ml glucose (Sigma) and 1× non-essential amino acids (Gibco). The HepG2 cells were fixed with 4% paraformaldehyde in TBS (50 mM Tris-HCl, pH 7.5, 137 mM NaCl, 2 mM KCl), were washed 3 times with TBS, and were stored at 4° C. in BSA/TBS until use. CSFZ(Cys) at 5 μg/ml was incubated with increasing amounts of the presumed inhibitors at 37° C. for 15 min. Fifty μl of these mixtures were added to the cells, incubated for 1 hr at 37° C., washed 3× with TBS/0.05% Tween and then sequentially incubated with 50 μl of mAb 2A10 at a concentration of 10 μg/ml in TBS/BSA buffer for 30 min at 37° C., and 1:5000 dilution of goat anti-mouse IgG conjugated to alkaline phosphatase (Boehringer) for 30 minutes. […] After 15 minutes, the fluorescence was measured in a Fluoroskan II plate reader (ICN).
Proteoglycans were preincubated with 5 μg/ml of CSFZ(Cys) and then were added to paraformaldehyde-fixed HepG2 cells. […] Each point represents the mean of triplicates. Percent inhibition was calculated by comparison to CSFZ(Cys) preincubated in medium alone.

[4] = tested on: Vivax-2 binding to sulfatide; assay: Inhibition of binding of Vivax-2 to sulfatide; parameters: species or system P. vivax
Protocol: as §1

P. berghei sporozoites [5] = assay: Infection assay of HepG2 cells with polymers; type: cell-based; conditions: for invasion of hepatocytes by sporozoites in vitro: no conditions given; for effect on sporozoite invasion: present during invasion, 5-50 μg/ml
Protocol: Infection assay: Semiconfluent monolayers of HepG2 cells were grown in 10% FCS/MEM on 8 chamber slides (#4808 Lab-tek -Naperville, Ill.) for 24 hours prior to each experiment. Sporozoites were pre-incubated in media alone or with the various polymers for 15 minutes at 4° C. 5×10^4 sporozoites, in a volume of 10 μl, were added per chamber. After 4 hours of incubation at 37° C., the medium containing the sporozoites was gently aspirated, and 0.5 ml MEM/10% FCS was added. Fresh medium was added at 18 hours and 28 hours, and then cells were fixed with methanol containing 0.3% H2O2 at 48 hours. After fixation, the wells were blocked with 10% FCS/PBS and were incubated with 10 μg/ml of mAb 2E6. Binding of the mAb was detected with a polyclonal goat anti-mouse Ig conjugated to horseradish peroxidase. […] The parasites in each well are counted under a 40× light microscope objective.
The cells were fixed and stained with mAb 2E6, followed by goat-anti-mouse linked to horseradish peroxidase. Numbers represent schizonts counted/20 fields under 40× magnification in a light microscope.

P. berghei sporozoites [6] = type: cell-based; conditions: for Number of EEF (Mean ± SD): schizonts per 20 fields
Protocol: Assays were conducted according to the methods described by Hollingdale, M. R. et al.. Science 213:1021-1022, 1981. and Sinden, R. E., WHO Bulletin MOS (Suppl.) 68:115-125, 1990. HepG2 cells were plated in FCS-MEM at a density of 0.5×10^6 cells/ml in 8-chamber slides (4808 Lab-tek, Naperville, Ill.) 24 hr. before each experiment. […] For antibody inhibition experiments, sporozoites were preincubated in FCS-MEM alone, or FCS-MEM containing anti-Region II IgG, or with preimmune sera IgG for 30 min. at 4° C. Sporozoites (5×10^4), in a volume of 100 μl, were added to each well. The medium was replenished after 2 hr. and changed after 18 and 28 hr. Each point was performed in quadruplicate. In experiments designed to evaluate the toxicity of the peptides and antisera, sporozoites were first incubated with the HepG2 cells for 2 hr in FCS-MEM. FCS-MEM containing the peptide at a concentration of 250 μg/ml (or the IgGs at a concentration of 700 μg/ml) was then added to the cultures, and incubation proceeded for two additional hours. As above, FCS-MEM was changed after 18 and 28 hr. All cultures were fixed with cold methanol containing 0.3% H2O2 after 48 hr. […] The number of exoerythrocytic forms in 20 fields was counted in a double-blind fashion under a 20× light microscope objective.
The number of exoerythrocytic forms (“EEF”) of the parasite that developed in the HepG2 cells were counted two days later. […] In Table 2, “Number of EEF” represents the average number of schizonts counted per 20 fields under 20-times magnification of a light microscope in quadruplicate wells; P values were calculated by one-way analysis of variances corrected by the Bonferroni method using the commercially available computer program GraphPAD Instat, version 1.14, copyright 1990. […]

[7] = tested on: binding of CS27IVC to liver sections; assay: Peptide inhibition of CS27IVC binding to frozen liver sections; parameters: species or system rat; conditions: peptide preincubation, up to 500 μg/ml
Protocol: The procedure was carried out essentially as described by Dukor P. et al., Proc. Natl. Acad. Sci. USA 67:991-997, 1970 and Imai Y. et al., J. Cell. Biol. 111:1225-1232, 1990. Rats were euthanized with CO2. Small pieces of the liver, spleen, heart, brain and lung were removed, snap frozen in liquid nitrogen, embedded in Tissue Tek O.C.T. (Miles, Inc., Naperville, Ill.), and cut into 5 μm sections. Sections were dried for 30 min., fixed for 10 min. in 4% paraformaldehyde, rinsed three times with phosphate-buffered saline (PBS), and either used immediately or stored at 4° C. in 1% BSA, 0.5% Tween, PBS (BSA/TPBS). After blocking with 100 mM glycine (pH 7.2) and with BSA/TPBS, the sections were sequentially incubated at 37° C. with recombinant proteins for 1 hr, 10 μg/ml MAb 2A10 for 45 min., and rat anti-mouse immunoglobulin conjugated to fluorescein isothiocyanate (Boehringer Mannheim, Indianapolis, Ind.) for 45 min. The slides were counterstained for 10 min. with 0.3% Evans blue, rinsed extensively in PBS, and finally observed under a fluorescence microscope. For peptide inhibition experiments, the sections were first incubated with the peptide at various concentrations in BSA/TPBS for 1 hour at 37° C., washed six times with BSA/TPBS, and then stained with 2.5 μg/ml CS recombinant protein as described above. In a few experiments, the tissues were fixed for 10 min. with methanol, acetone, or 4% paraformaldehyde containing 0.5% glutaraldehyde.

[8] = biological target: T1, P.berghei CS protein binding to sulfatide (Plasmodium berghei, UniProt P06915); assay: Inhibition of binding of P.berghei CS protein to sulfatide
T1 construct: as well as the native P. berghei CS protein; endogenous in cells; host or cells: P. berghei sporozoites (extract, 35,000 sporozoite equivalents/well)
Protocol: as §1

[9] = biological target: hepatocyte plasma membrane receptor for the circumsporozoite protein on human hepatocytes and HepG2; assay: competition: fixed HepG2 cells preincubated with peptide, washed, then CSFZ (Cys) 2.5 µg/ml (competitor); cell ELISA
[10] = peptide 500 μg/ml present during invasion

Molecule: heparin
- effect on co-immunoprecipitation of the CS receptor by CSFZ(Cys) [1]: prevented
- effect on co-immunoprecipitation of purified proteoglycans by CSFZ(Cys) [1]: inhibited co-immunoprecipitation
- % INHIBITION ([2]; inhibitor 1 mg/ml): 0%
- % INHIBITION ([2]; inhibitor 10 mg/ml): 31.2%
- inhibition of CS binding to HepG2 cells [3]: inhibited
- % INHIBITION ([4]; inhibitor 100 μg/ml): 0%
- invasion of hepatocytes by sporozoites in vitro (P. berghei sporozoites [5]): inhibited

Molecule: chondroitin sulfate
- effect on co-immunoprecipitation of the CS receptor by CSFZ(Cys) [1]: no effect
- effect on co-immunoprecipitation of purified proteoglycans by CSFZ(Cys) [1]: not
- inhibition of CS binding to HepG2 cells [3]: not

Molecule: PGSANKPKDELDYANIEKK [Pf4]
- Number of EEF (Mean ± SD) (P. berghei sporozoites [6]; peptide 250 μg/ml present during invasion): 122.5 ± 13.4 and 123.7 ± 20.1 and 105.0 ± 12.5
- Percentage of Inhibition (P. berghei sporozoites [6]; [10]): 0.0%
- Number of EEF (Mean ± SD) (P. berghei sporozoites [6]; [10]): 375.2 ± 52
- inhibition of the binding of CS27IVC to liver sections [7]: failed to inhibit

Molecule: heparan-sulfate
- % INHIBITION ([2]; inhibitor 10 mg/ml): 0%
- inhibition of CS binding to HepG2 cells [3]: inhibited
- effect on binding to sulfatide ([4]; 1 mg/ml): no effect
- % INHIBITION ([4]; inhibitor 1 mg/ml): 0%
- effect on sporozoite invasion (P. berghei sporozoites [5]): no effect

Molecule: dextran-sulfate
- % INHIBITION ([2]; inhibitor 1 μg/ml): 12.2%
- % INHIBITION ([2]; inhibitor 10 μg/ml): 21.1%
- % INHIBITION ([2]; inhibitor 100 μg/ml): 25.6%
- % INHIBITION ([2]; inhibitor 1 mg/ml): 33%
- % INHIBITION ([2]; inhibitor 10 mg/ml): 40.5%
- % INHIBITION ([2]; inhibitor 10 mg/ml, listed as dextran-sulfate): less than 50%
- % INHIBITION ([8]; inhibitor 1 μg/ml): 31.2%
- % INHIBITION ([8]; inhibitor 10 μg/ml): 63%
- % INHIBITION ([8]; inhibitor 100 μg/ml): 79%
- inhibition of CS binding to HepG2 cells [3]: inhibited
- % INHIBITION ([4]; inhibitor 1 μg/ml): 19%
- % INHIBITION ([4]; inhibitor 10 μg/ml): 70.2%
- development of the liver stages (P. berghei sporozoites [5]; added after 4 hours of contact, after invasion): not affected
- invasion of hepatocytes by sporozoites in vitro (P. berghei sporozoites [5]): inhibited
- effect on sporozoite invasion (P. berghei sporozoites [5]): inhibited invasion in a dose-dependent fashion

Molecule: fucoidan
- inhibition of CS binding to HepG2 cells [3]: inhibited
- invasion of hepatocytes by sporozoites in vitro (P. berghei sporozoites [5]): inhibited

Molecule: dextran
- % INHIBITION ([2]; inhibitor 10 mg/ml): 0%
- inhibition of CS binding to HepG2 cells [3]: not
- % INHIBITION ([4]; inhibitor 1 mg/ml): 0%
- effect on sporozoite invasion (P. berghei sporozoites [5]): no effect

B1: Pf2 (peptide)
peptide: CGNGIQVRIKPGSANKPKDE
- IC50 [9]: 75 µg/mL
